System: HeyA8 cells
Assay: In vitro anoikis (poly-HEMA plates, Annexin V-FITC/PI)
Type: cell-based, human
Details: HeyA8 cells in suspension, 72 h
Procedure: In vitro anoikis. Cells were transfected with control or ZNF304 siRNA and transferred to 6-well tissue culture plates that were coated with polyhydroxyethylmethacrylate, and cells were cultured in these plates for 72 h at 37° C. in a 5% CO2 atmosphere. Cells were washed with PBS and were stained with Annexin V-FITC and PI solution (50 μg/ml) containing RNase A (25 μg/ml). After incubating the pellets for 30 min at 37° C., cell viability was analyzed by flow cytometry.
β1 integrin confers a survival advantage to tumor cells (Vachon, 2011). […] Therefore, the anoikis rates were examined at 24, 48, and 72 h in detached HeyA8 cells in vitro using polyhydroxyethylmethacrylate (poly-HEMA)-coated tissue culture plates that promote anchorage-independent cell growth (Sood et al., 2010).

## Control siRNA: non-silencing siRNA without homology to any known human mRNA, UUCUCCGAACGUGUCACGUUU (SEQ ID NO: 15) (listed as RNA, chemistry not given here)
  rate of anoikis: 60%

Source: patent US10874622B2, “Dual assembly nanoparticles” (BOARD OF REGENTS, THE UNIVERSITY OF TEXAS SYSTEM, priority 2015, dated 2020)
